Results from patent US20110112193A1 (priority 2008, published 2011).

Target: T1, Recombinant human LTC4 synthase (Homo sapiens, UniProt Q16873)
T1 construct: made in house; host or cells: Pichia pastoris ('Piccia pastoralis' [sic])
T1 sequence (Q16873 1-150): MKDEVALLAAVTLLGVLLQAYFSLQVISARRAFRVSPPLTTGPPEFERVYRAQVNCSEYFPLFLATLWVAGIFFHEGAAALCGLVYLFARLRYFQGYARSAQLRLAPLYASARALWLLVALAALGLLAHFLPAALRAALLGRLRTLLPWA
Assay: LTC4 synthase in vitro assay (e.g. by HTRF detection)
Assay type: biochemical
Description: In the assay, LTC4 synthase catalyses the reaction where the substrate LTA4 methyl ester is converted to the corresponding LTC4 methyl ester. Recombinant human LTC4 synthase is expressed in Piccia pastoralis and the purified enzyme is dissolved in 25 mM Tris-buffer pH 7.8 and stored at −80° C. The assay is performed in phosphate buffered saline (PBS) pH 7.4, supplemented with 5 mM glutathione (GSH). The reaction is terminated by addition of acetonitrile/MeOH/acetic acid (50/50/1). The assay is performed at rt in 96-well plates. Analysis of the formed LTC4 methyl ester is performed with reversed phase HPLC (Waters 2795 utilizing an Onyx Monolithic C18 column). The mobile phase consists of acetonitrile/MeOH/H2O (32.5/30/37.5) with 1% acetic acid pH adjusted with NH3 to pH 5.6, and absorbance measured at 280 nm with a Waters 2487 UV-detector.
The following is added chronologically to each well: • 1. 50 μl assay buffer, PBS with 5 mM GSH. • 2. 0.5 μl inhibitor in DMSO (final conc. 1 nM-10 μM). • 3. 2 μl LTC4 synthase in PBS. The total protein concentration in this solution is 0.025 mg/ml. Incubation of the plate at room temperature for 10 minutes. • 4. 1-1.5 μl LTA4 methyl ester (final conc. 10 μM). Incubation of the plate at rt for 1 min. • 5. 50 μl stop solution.
80 μl of the incubation mixture is analysed with HPLC.
Alternatively, HTRF detection can be used:
In the assay, LTC4 synthase catalyses the reaction where the substrate LTA4 is converted to LTC4. Recombinant human LTC4 synthase is expressed in Piccia pastoralis and the purified enzyme is dissolved in 25 mM tris-buffer pH 7.8 supplemented with 0.1 mM glutathione (GSH) and stored at −80° C. The assay is performed in phosphate buffered saline (PBS) pH 7.4 and 5 mM GSH in 384-well plates.
The following is added chronologically to each well:
1.48 μL LTC4 synthase in PBS with 5 mM GSH. The total protein concentration in this solution is 0.5 μg/mL.
2. 1 μL inhibitor in DMSO (final concentration 1 nM to 10 μM).
3. Incubation of the plate at room temperature for 10 min.
4. 1 μL LTA4 (final concentration 2.5 μM).
5. Incubation of the plate at room temperature for 5 min.
6. 10 μL of the incubation mixture is analysed using homogenous time resolved fluorescent (HTRF) detection.

Compound	IC50 [µM]
CCCCOc1ccc(S(=O)(=O)Nc2ccc(Oc3ccc(Nc4ccc(F)c(F)c4)cc3C(=O)O)cc2)cc1 [Example 1, 2-[4-(4-Butoxy-benzene-sulfonylamino)-phenoxy]-5-(3,4-difluoro-phenyl-amino)-benzoic acid]	0.243
O=C(O)c1cc(Nc2ccc(F)c(F)c2)ccc1Oc1ccc(Nc2ccc(F)c(F)c2)cc1 [Example 2, 5-(3,4-Difluoro-phenylamino)-2-[4-(3,4-difluoro-phenylamino)-phenoxy]-benzoic acid]	1.9
CCCCOc1ccc(S(=O)(=O)Nc2ccc(Oc3ccc(Nc4ccc(F)c(F)c4)cc3C(=O)O)cc2C(=O)O)cc1 [Example 3, 2-(4-Butoxy-benzene-sulfonylamino)-5-[2-carboxy-4-(3,4-difluoro-phenylamino)-phenoxy]-benzoic acid]	1.02
O=C(O)c1cc(Oc2ccc(Nc3ccc(F)c(F)c3)cc2C(=O)O)ccc1Nc1ccc(F)c(F)c1 [Example 4]	2.03
